The values that follow come from US20170066759A1, “AROMATIC 5-MEMBERED HETEROCYCLIC DERIVATIVE HAVING TRPV4-INHIBITING ACTIVITY” (Shionogi & Co., Ltd., priority 2012, published 2017).

pIC50: −log10 of the molar value.

By pIC50 is commonly meant the negative decadic logarithm of the IC50, by convention in mol/L.

For the assay, the target named is T1, human TRPV4 (hTRPV4/CHO cells) (Homo sapiens, UniProt Q9HBA0).
T1 construct: expressed in transfected cells; host or cells: CHO-K1
T1 sequence (Q9HBA0 whole entry): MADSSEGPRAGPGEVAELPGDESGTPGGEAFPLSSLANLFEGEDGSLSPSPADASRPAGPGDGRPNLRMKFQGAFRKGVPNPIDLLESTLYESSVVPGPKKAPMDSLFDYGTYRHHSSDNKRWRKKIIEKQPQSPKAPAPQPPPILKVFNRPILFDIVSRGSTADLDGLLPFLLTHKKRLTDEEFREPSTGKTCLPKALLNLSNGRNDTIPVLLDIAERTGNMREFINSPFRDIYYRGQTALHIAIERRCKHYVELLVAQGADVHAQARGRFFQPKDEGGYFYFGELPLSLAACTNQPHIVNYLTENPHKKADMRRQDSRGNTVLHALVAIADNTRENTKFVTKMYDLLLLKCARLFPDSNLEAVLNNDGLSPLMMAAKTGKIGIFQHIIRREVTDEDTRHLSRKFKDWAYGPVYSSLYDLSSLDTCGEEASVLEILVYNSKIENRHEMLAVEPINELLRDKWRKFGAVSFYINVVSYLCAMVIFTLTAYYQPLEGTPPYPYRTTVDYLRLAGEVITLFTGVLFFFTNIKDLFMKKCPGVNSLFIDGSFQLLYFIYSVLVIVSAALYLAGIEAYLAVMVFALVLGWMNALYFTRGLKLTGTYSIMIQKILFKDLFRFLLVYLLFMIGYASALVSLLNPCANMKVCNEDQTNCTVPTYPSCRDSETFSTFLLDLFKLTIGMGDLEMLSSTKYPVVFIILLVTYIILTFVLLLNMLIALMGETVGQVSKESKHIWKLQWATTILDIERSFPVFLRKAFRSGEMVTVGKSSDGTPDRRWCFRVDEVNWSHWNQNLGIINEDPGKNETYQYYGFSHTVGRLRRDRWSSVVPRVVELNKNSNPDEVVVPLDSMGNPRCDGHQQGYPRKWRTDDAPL
Put plainly: Test Example 1: TRPV4 inhibitory activity (IC50 value), 4α-PDD stimulation, Fluo4 calcium fluorescence (FLIPR TETRA). Particulars: Test Example 1, 4α-PDD stimulation, read-out: Test 1 IC50. It counts as cell-based.
On to `COC(=O)N(C)Cc1nc(CO)sc1-c1csc(NC(=O)Cc2ccc(S(=O)(=O)C(F)(F)F)cc2)n1` [Compound I-434], for which the pIC50 is above 7.00. Then `COC(=O)NCc1nc(CO)sc1-c1csc(NC(=O)Cc2ccc(S(=O)(=O)C(F)(F)F)cc2)n1` [Compound I-435], with above 7.00. For the molecule `CN(Cc1nc(CO)sc1-c1csc(NC(=O)Cc2ccc(S(=O)(=O)C(F)(F)F)cc2)n1)C(=O)CO` [Compound I-436], the pIC50 is 6.00 to 7.00. `Cc1nc(CCO)sc1-c1csc(NC(=O)Cc2ccc(S(=O)(=O)C(F)(F)F)cc2)n1` [Compound I-437]: the pIC50 is above 7.00. The figure for `CCOCC(=O)NCc1nc(CO)sc1-c1csc(NC(=O)Cc2ccc(S(=O)(=O)C(F)(F)F)cc2)n1` [Compound I-438] is above 7.00; for `O=C(Cc1ccc(S(=O)(=O)C(F)(F)F)cc1)Nc1nc(-c2sc(CO)nc2CNC(=O)C2(C(F)(F)F)CC2)cs1` [Compound I-439] it is above 7.00; for `NC(=O)OCC(=O)NCc1nc(CO)sc1-c1csc(NC(=O)Cc2ccc(S(=O)(=O)C(F)(F)F)cc2)n1` [Compound I-440] it is 6.00 to 7.00. As for `CNC(=N)c1nc(C)c(-c2csc(NC(=O)Cc3ccc(S(=O)(=O)C(F)(F)F)cc3)n2)s1` [Compound I-441], the pIC50 was 6.00 to 7.00. With `Cc1nc(CO)sc1-c1csc(NC(=O)NCc2ccc(Cl)cc2)n1` [Compound I-442], the pIC50 is 6.00 to 7.00. `Cc1nc(C)c(-c2csc(NC(=O)Cc3cccc(I)c3)n2)s1` [Compound I-443]: the negative-log IC50 (pIC50) was above 7.00. As to `COc1nc(C)c(-c2csc(NC(=O)Cc3ccc(S(=O)(=O)C(F)(F)F)cc3)n2)s1` [Compound I-444], the pIC50 is above 7.00. Take `COCCOc1nc(C)c(-c2csc(NC(=O)Cc3ccc(S(=O)(=O)C(F)(F)F)cc3)n2)s1` [Compound I-445]: the pIC50 was 5.10 to 6.00. For the molecule `Cc1nc(OCCOCc2ccccc2)sc1-c1csc(NC(=O)Cc2ccc(S(=O)(=O)C(F)(F)F)cc2)n1` [Compound I-446], the pIC50 was 5.10 to 6.00. The figure for `Cc1nc(CO)sc1-c1csc(NC(=O)Nc2ccc(C(F)(F)F)nc2)n1` [Compound I-447] is above 7.00; for `Cc1nc(CO)sc1-c1csc(NC(=O)C2C[C@H](C(F)(F)F)CN2C(=O)OC(C)(C)C)n1` (stereo partly drawn) [Compound I-448] it is above 7.00; for `Cc1nc(CO)sc1-c1csc(NC(=O)CC2CCN(c3ncc(C(F)(F)F)cn3)CC2)n1` [Compound I-449] it is above 7.00. `Cc1nc(CO)sc1-c1csc(NC(=O)C2CC3(CCC3)C2)n1` [Compound I-450]: the negative logarithm of the IC50 (pIC50) was above 7.00. `Cc1[nH]c(=O)sc1-c1csc(NC(=O)Cc2ccc(S(=O)(=O)C(F)(F)F)cc2)n1` [Compound I-451]: the pIC50 is 6.00 to 7.00. The figure for `Cc1nc(CO)sc1-c1csc(NC(=O)CC2CCN(S(=O)(=O)CCC(F)(F)F)CC2)n1` [Compound I-452] is 5.10 to 6.00; for `Cc1nc(CO)sc1-c1csc(NC(=O)CC2CCN(S(=O)(=O)C(F)(F)F)CC2)n1` [Compound I-453] it is 6.00 to 7.00. On to `Cc1nc([C@H](C)O)sc1-c1csc(NC(=O)Cc2ccc(S(=O)(=O)C(F)(F)F)cc2)n1` [Compound I-454], for which the pIC50 was above 7.00.

Take `Cc1nc([C@@H](C)O)sc1-c1csc(NC(=O)Cc2ccc(S(=O)(=O)C(F)(F)F)cc2)n1` [Compound I-455]: the negative logarithm of the IC50 (pIC50) was above 7.00.

Take `Cc1nc(CO)c(-c2csc(NC(=O)Cc3ccc(S(=O)(=O)C(F)(F)F)cc3)n2)s1` [Compound I-456]: the pIC50 was above 7.00. In the case of `Cc1nc(CO)sc1-c1csc(NC(=O)CC2CC3(CCC3)C2)n1` [Compound I-457], the negative-log IC50 (pIC50) was above 7.00. For the molecule `Cc1nc(CO)sc1-c1csc(NC(=O)CCc2ccc(Cl)cc2)n1` [Compound I-458], the negative-log IC50 (pIC50) was above 7.00. Then `COCc1nc(C)c(-c2csc(NC(=O)Cc3ccc(S(=O)(=O)C(F)(F)F)cc3)n2)s1` [Compound I-459], with 6.00 to 7.00. For the molecule `Cc1nc(COCC(F)(F)F)sc1-c1csc(NC(=O)Cc2ccc(S(=O)(=O)C(F)(F)F)cc2)n1` [Compound I-460], the pIC50 is 5.10 to 6.00. For the molecule `Cc1nc(OCCO)sc1-c1csc(NC(=O)Cc2ccc(S(=O)(=O)C(F)(F)F)cc2)n1` [Compound I-461], the pIC50 is 6.00 to 7.00. As to `Cc1nc(CO)sc1-c1csc(NC(=O)/C=C/c2ccccc2)n1` [Compound I-462], the negative-log IC50 (pIC50) was 6.00 to 7.00. With `O=C(Cc1ccc(S(=O)(=O)C(F)(F)F)cc1)Nc1nc(-c2sc(CO)nc2CN2CCCC2=O)cs1` [Compound I-463], the negative logarithm of the IC50 (pIC50) is 6.00 to 7.00. As for `Cc1nc(CO)sc1-c1csc(NC(=O)C2C[C@H](C(F)(F)F)CN2C(=O)C(F)(F)F)n1` (stereo partly drawn) [Compound I-464], the pIC50 is 5.10 to 6.00. For `Cc1nc(CO)sc1-c1csc(NC(=O)C2C[C@H](C(F)(F)F)CN2C(=O)C(F)(F)F)n1` (stereo partly drawn) [Compound I-465], the pIC50 is 6.00 to 7.00.

Turning to `Cc1nc(CO)sc1-c1csc(NC(=O)/C=C/c2ccc(Cl)cc2)n1` [Compound I-466], the pIC50 was 6.00 to 7.00.

Regarding `Cc1nc(COC(N)=O)c(-c2csc(NC(=O)Cc3ccc(S(=O)(=O)C(F)(F)F)cc3)n2)s1` [Compound I-468], the pIC50 is above 7.00. Consider `Cc1nc(C)c(-c2csc(NC(=O)Cc3cccc(C(=O)Nc4ccccc4)c3)n2)s1` [Compound I-469], for which the negative-log IC50 (pIC50) was above 7.00. On to `Cc1nc(C)c(-c2csc(NC(=O)C3CC4(C3)CC(F)(F)C4)n2)s1` [Compound I-470], for which the pIC50 is above 7.00. On to `CC(=O)NCc1nc(C)sc1-c1csc(NC(=O)Cc2ccc(S(=O)(=O)C(F)(F)F)cc2)n1` [Compound I-471], for which the pIC50 was above 7.00. For `Cc1nc(CO)sc1-c1csc(NC(=O)C2C[C@H](C(F)(F)F)CN2C(=O)OCC(F)(F)F)n1` (stereo partly drawn) [Compound I-475], the pIC50 was 6.00 to 7.00.

Regarding `Cc1nc(C(C)O)sc1-c1csc(NC(=O)[C@@H]2C[C@@H](c3ccccc3)CN2C(=O)C(F)(F)F)n1` (stereo partly drawn) [Compound I-476], the pIC50 is above 7.00. Consider `Cc1nc(C)c(-c2csc(NC(=O)Cc3ccc(S(=O)(=O)C(F)(F)F)cc3)n2)[nH]1` [Compound I-477], for which the pIC50 was 5.10 to 6.00.

For the molecule `CC(=O)Nc1nc(-c2sc(C)nc2C)cs1` [Compound I-480], the negative logarithm of the IC50 (pIC50) is 5.10 to 6.00. Turning to `O=C(Cc1ccc(S(=O)(=O)C(F)(F)F)cc1)Nc1nc(-c2sc(CO)nc2CN2CCOC2=O)cs1` [Compound I-483], the negative logarithm of the IC50 (pIC50) was 6.00 to 7.00.

For `Cc1nc(CCl)c(-c2csc(NC(=O)Cc3ccc(S(=O)(=O)C(F)(F)F)cc3)n2)s1` [Compound I-484], the pIC50 was above 7.00. Then `Cc1nc(CS(C)(=O)=O)c(-c2csc(NC(=O)Cc3ccc(S(=O)(=O)C(F)(F)F)cc3)n2)s1` [Compound I-485], with 6.00 to 7.00; and `Cc1nc(CS(=O)(=O)C(F)(F)F)c(-c2csc(NC(=O)Cc3ccc(S(=O)(=O)C(F)(F)F)cc3)n2)s1` [Compound I-486], with 6.00 to 7.00; and `Cc1nc(CN2NCCC2=O)c(-c2csc(NC(=O)Cc3ccc(S(=O)(=O)C(F)(F)F)cc3)n2)s1` [Compound I-487], with 6.00 to 7.00. Turning to `COC(=O)c1cccc(CC(=O)Nc2nc(-c3sc(C)nc3C)cs2)c1` [Compound I-488], the negative logarithm of the IC50 (pIC50) was above 7.00. Consider `Cc1nc(C)c(-c2csc(NC(=O)Cc3cccc(C(=O)N[C@H](c4ccccc4)C(F)(F)F)c3)n2)s1` [Compound I-489], for which the negative logarithm of the IC50 (pIC50) was above 7.00. `Cc1nc(C)c(-c2csc(NC(=O)Cc3cccc(C(=O)N[C@@H](c4ccccc4)C(F)(F)F)c3)n2)s1` [Compound I-490]: the negative-log IC50 (pIC50) was above 7.00.

In the case of `Cc1nc(C)c(-c2csc(NC(=O)CC3CN(Cc4ccc(C(F)(F)F)cc4)C3)n2)s1` [Compound I-491], the pIC50 is 5.10 to 6.00. As for `Cc1nc(C)c(-c2csc(NC(=O)CC3CN(c4ccc(C(F)(F)F)cc4)C3)n2)s1` [Compound I-492], the pIC50 is above 7.00. As for `Cc1nc(C)c(-c2csc(NC(=O)CC3CN(c4ccc(C(F)(F)F)cn4)C3)n2)s1` [Compound I-493], the negative logarithm of the IC50 (pIC50) is 6.00 to 7.00. Then `Cc1nc(C)c(-c2csc(NC(=O)CCC(=O)N[C@H](c3ccccc3)C(F)(F)F)n2)s1` [Compound I-494], with 6.00 to 7.00; and `Cc1nc(C)c(-c2csc(NC(=O)[C@H]3CC[C@@H](C(=O)N[C@H](c4ccccc4)C(F)(F)F)CC3)n2)s1` [Compound I-495], with 6.00 to 7.00. With `Cc1nc(C)c(-c2csc(NC(=O)C3(C)CN(c4ccc(C(F)(F)F)cc4)C3)n2)s1` [Compound I-496], the pIC50 was above 7.00. The figure for `Cc1nc(C)c(-c2csc(NC(=O)C3CN(c4ccc(C(F)(F)F)cc4)C3)n2)s1` [Compound I-497] is above 7.00; for `Cc1nc(C)c(-c2csc(NC(=O)Cc3cccc(S(=O)(=O)Nc4ccc(C(F)(F)F)cc4)c3)n2)s1` [Compound I-498] it is above 7.00; for `Cc1nc(C)c(-c2csc(NC(=O)Cc3cccc(S(=O)(=O)N[C@H](c4ccccc4)C(F)(F)F)c3)n2)s1` [Compound I-499] it is above 7.00. On to `Cc1nc(C)c(-c2csc(NC(=O)Cc3cccc(S(=O)(=O)Nc4ccccc4F)c3)n2)s1` [Compound I-501], for which the negative logarithm of the IC50 (pIC50) is above 7.00.

Take `Cc1nc(C)c(-c2csc(NC(=O)Cc3cccc(S(=O)(=O)NCC(F)(F)F)c3)n2)s1` [Compound I-502]: the pIC50 was above 7.00.

For the molecule `Cc1nc(C)c(-c2csc(NC(=O)C3CN(S(=O)(=O)c4ccc(Cl)cc4Cl)C3)n2)s1` [Compound I-503], the pIC50 was above 7.00. As for `COc1cc(CC(=O)Nc2nc(-c3sc(C)nc3C)cs2)cc(C(=O)NC(c2ccccc2)C(F)(F)F)c1` (stereo not drawn) [Compound I-504], the pIC50 was above 7.00. `Cc1nc(C)c(-c2csc(NC(=O)Cc3cccc(C(=O)Nc4ccccc4F)n3)n2)s1` [Compound I-505]: the pIC50 is above 7.00. Regarding `Cc1nc(C)c(-c2csc(NC(=O)Cc3cccc(C(=O)NC(c4ccccc4)C(F)(F)F)n3)n2)s1` (stereo not drawn) [Compound I-506], the pIC50 is above 7.00. As for `Cc1nc(C)c(-c2csc(NC(=O)Cc3cccc(C(=O)NC(C(C)(C)C)C(F)(F)F)n3)n2)s1` (stereo not drawn) [Compound I-507], the pIC50 was above 7.00. As for `Cc1nc(C)c(-c2csc(NC(=O)Cc3cccc(C(=O)Nc4ccc(C(F)(F)F)cc4)n3)n2)s1` [Compound I-508], the pIC50 was above 7.00.
